In US8188085B2, “Antifungal agents” (Merck Sharp & Dohme Corp., priority 2008, dated 2012):
Structures can show the parent of a compound that is named as a salt.

Each compound was assayed against glucan synthase (GS) prepared from Candida albicans MY1055 (Candida albicans, UniProt O13428) (assay: Glucan synthase inhibition (polymerization assay, 96-well)). Conditions: not given.
Type: biochemical
Outline: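 Partially purified glucan synthase from C. albicans MY1055 membranes incorporated 0.5 mM ³H-UDPG with 25 μM GTP-γ-S, HEPES pH 7.5, over 60 min at 22 °C. TCA-precipitated glucan was counted by scintillation. IC50 (ng/mL) came from sigmoidal fits of duplicate 3-fold dilution series.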

Sequence of glucan synthase (GS) prepared from Candida albicans MY1055 (O13428 1-1897): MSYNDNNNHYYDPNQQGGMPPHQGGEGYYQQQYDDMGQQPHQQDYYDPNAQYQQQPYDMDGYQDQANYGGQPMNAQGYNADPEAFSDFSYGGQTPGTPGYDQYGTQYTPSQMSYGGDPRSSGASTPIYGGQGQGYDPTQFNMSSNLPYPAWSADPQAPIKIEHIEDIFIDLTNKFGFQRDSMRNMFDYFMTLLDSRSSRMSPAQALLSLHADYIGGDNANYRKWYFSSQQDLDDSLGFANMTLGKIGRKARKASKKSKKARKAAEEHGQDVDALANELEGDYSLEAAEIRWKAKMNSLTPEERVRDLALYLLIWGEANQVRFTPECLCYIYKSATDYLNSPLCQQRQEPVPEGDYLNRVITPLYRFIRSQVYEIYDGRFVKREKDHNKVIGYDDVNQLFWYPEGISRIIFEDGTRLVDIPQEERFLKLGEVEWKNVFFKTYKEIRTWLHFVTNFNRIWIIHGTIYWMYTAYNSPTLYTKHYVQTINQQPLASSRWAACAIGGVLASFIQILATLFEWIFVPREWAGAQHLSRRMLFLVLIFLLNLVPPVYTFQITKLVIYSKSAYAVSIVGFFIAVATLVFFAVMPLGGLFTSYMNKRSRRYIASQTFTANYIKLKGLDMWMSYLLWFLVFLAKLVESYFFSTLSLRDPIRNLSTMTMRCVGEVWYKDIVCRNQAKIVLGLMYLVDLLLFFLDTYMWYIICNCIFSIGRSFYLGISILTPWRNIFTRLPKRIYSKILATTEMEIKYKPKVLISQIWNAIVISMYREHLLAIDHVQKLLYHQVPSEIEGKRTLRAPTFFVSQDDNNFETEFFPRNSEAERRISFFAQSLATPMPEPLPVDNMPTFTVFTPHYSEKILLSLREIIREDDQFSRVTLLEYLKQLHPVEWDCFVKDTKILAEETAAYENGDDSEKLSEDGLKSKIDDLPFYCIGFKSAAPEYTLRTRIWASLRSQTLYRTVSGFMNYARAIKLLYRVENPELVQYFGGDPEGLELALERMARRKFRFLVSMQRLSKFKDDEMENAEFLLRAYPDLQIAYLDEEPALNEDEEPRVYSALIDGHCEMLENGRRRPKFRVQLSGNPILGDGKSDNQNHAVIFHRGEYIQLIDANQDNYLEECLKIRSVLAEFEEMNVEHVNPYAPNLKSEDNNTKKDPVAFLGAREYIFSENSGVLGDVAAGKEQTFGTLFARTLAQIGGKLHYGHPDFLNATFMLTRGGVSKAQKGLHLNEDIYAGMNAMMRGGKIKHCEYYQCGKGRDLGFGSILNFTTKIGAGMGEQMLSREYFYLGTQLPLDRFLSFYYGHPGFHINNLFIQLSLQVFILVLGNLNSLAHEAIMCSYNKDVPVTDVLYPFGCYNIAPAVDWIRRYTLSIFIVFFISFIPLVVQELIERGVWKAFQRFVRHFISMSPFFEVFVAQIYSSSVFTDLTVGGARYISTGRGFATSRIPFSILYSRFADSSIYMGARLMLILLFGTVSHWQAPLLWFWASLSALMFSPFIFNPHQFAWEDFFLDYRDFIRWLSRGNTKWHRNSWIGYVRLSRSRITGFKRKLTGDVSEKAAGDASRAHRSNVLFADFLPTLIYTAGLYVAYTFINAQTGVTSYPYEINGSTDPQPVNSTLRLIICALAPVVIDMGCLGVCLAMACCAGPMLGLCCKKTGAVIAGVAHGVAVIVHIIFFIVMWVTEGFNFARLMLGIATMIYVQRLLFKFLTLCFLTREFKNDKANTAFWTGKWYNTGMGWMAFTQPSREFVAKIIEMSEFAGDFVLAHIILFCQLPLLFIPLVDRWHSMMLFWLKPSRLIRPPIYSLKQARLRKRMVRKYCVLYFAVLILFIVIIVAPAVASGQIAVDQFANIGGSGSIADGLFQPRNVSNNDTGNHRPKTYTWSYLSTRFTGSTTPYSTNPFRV

Row | Compound | IC50 [nM]
1 | CC(C)[C@@H](C)[C@@]1(C)CC[C@]2(C)[C@H]3CC[C@@H]4[C@@]5(COC[C@@]4(C)[C@@H](OC[C@](C)(N)C(C)(C)C)[C@H](n4ncnc4-c4ccc[n+](C)c4)C5)C3=CC[C@@]2(C)[C@@H]1C(=O)O [Example 264, (1S,4aR,6aS,7R,8R,10aR,10bR,12aR,14R,15R)-15-[[(2R)-2-amino-2,3,3-trimethylbutyl]oxy]-8-[(1R)-1,2-dimethylpropyl]-14-[5-(1-methyl-3-pyridiniumyl)-1H-1,2,4-triazol-1-yl]-1,6,6a,7,8,9,10,10a,10b,11,12,12a-dodecahydro-1,6a,8,10a-tetramethyl-4H-1,4a-propano-2H-phenanthro[1,2-c]pyran-7-carboxylic acid trifluoroacetate] | 0.403

Same assay, conditions: GS from C. albicans MY1055; 60 min incubation at 22° C.; read-out: Candida Albicans GS IC50 (converted)

Row | Compound | IC50 [nM]
2 | CC(C)[C@@H](C)[C@@]1(C)CC[C@]2(C)[C@H]3CC[C@@H]4[C@@]5(COC[C@@]4(C)[C@@H](OC[C@](C)(N)C(C)(C)C)[C@H](n4ncnc4-c4ccc(C(=O)O)cc4)C5)C3=CC[C@@]2(C)[C@@H]1C(=O)O [Example 235, (1S,4aR,6aS,7R,8R,10aR,10bR,12aR,14R,15R)-15-[[(2R)-2-amino-2,3,3-trimethylbutyl]oxy]-14-[5-(4-carboxyphenyl)-1H-1,2,4-triazol-1-yl]-8-[(1R)-1,2-dimethylpropyl]-1,6,6a,7,8,9,10,10a,10b,11,12,12a-dodecahydro-1,6a,8,10a-tetramethyl-4H-1,4a-propano-2H-phenanthro[1,2-c]pyran-7-carboxylic acid] | 6.47
3 | CC(C)[C@@H](C)[C@@]1(C)CC[C@]2(C)[C@H]3CC[C@@H]4[C@@]5(COC[C@@]4(C)[C@@H](OC[C@](C)(N)C(C)(C)C)[C@H](n4ncnc4-c4ccc(CN(C)C)cc4)C5)C3=CC[C@@]2(C)[C@@H]1C(=O)O [Example 239, (1S,4aR,6aS,7R,8R,10aR,10bR,12aR,14R,15R)-15-[[(2R)-2-amino-2,3,3-trimethylbutyl]oxy]-14-[5-[4-[(dimethylamino)methyl]phenyl]-1H-1,2,4-triazol-1-yl]-8-[(1R)-1,2-dimethylpropyl]-1,6,6a,7,8,9,10,10a,10b,11,12,12a-dodecahydro-1,6a,8,10a-tetramethyl-4H-1,4a-propano-2H-phenanthro[1,2-c]pyran-7-carboxylic acid] | 0.127
4 | CCC(N)(CC)CO[C@H]1[C@H](n2ncnc2-c2ccncc2)C[C@@]23COC[C@]1(C)[C@@H]2CC[C@H]1C3=CC[C@@]2(C)[C@H](C(=O)O)[C@@](C)([C@H](C)C(C)C)CC[C@]12C [Example 241, (1S,4aR,6aS,7R,8R,10aR,10bR,12aR,14R,15R)-15-(2-amino-2-ethylbutoxy)-8-[(1R)-1,2-dimethylpropyl]-14-[5-(4-pyridinyl)-1H-1,2,4-triazol-1-yl]-1,6,6a,7,8,9,10,10a,10b,11,12,12a-dodecahydro-1,6a,8,10a-tetramethyl-4H-1,4a-propano-2H-phenanthro[1,2-c]pyran-7-carboxylic acid] | 1.4
5 | CC(C)[C@@H](C)[C@@]1(C)CC[C@]2(C)[C@H]3CC[C@@H]4[C@@]5(COC[C@@]4(C)[C@@H](OC[C@](C)(N)c4ccccc4)[C@H](n4ncnc4-c4ccncc4)C5)C3=CC[C@@]2(C)[C@@H]1C(=O)O [Example 245, (1S,4aR,6aS,7R,8R,10aR,10bR,12aR,14R,15R)-15-[[(2R)-2-amino-2-phenylpropyl]oxy]-8-[(1R)-1,2-dimethylpropyl]-14-[5-(4-pyridinyl)-1H-1,2,4-triazol-1-yl]-1,6,6a,7,8,9,10,10a,10b,11,12,12a-dodecahydro-1,6a,8,10a-tetramethyl-4H-1,4a-propano-2H-phenanthro[1,2-c]pyran-7-carboxylic acid] | 8
6 | CC(C)[C@@H](C)[C@@]1(C)CC[C@]2(C)[C@H]3CC[C@@H]4[C@@]5(COC[C@@]4(C)[C@@H](OC[C@](C)(N)C(C)(C)C)[C@H](n4ncnc4-c4ccc(C6=NCCN6)cc4)C5)C3=CC[C@@]2(C)[C@@H]1C(=O)O [Example 268, (1S,4aR,6aS,7R,8R,8R,10aR,10bR,12aR,14R,15R)-15-[[(2R)-2-amino-2,3,3-trimethylbutyl]oxy]-14-[5-[4-(4,5-dihydro-1H-imidazol-2-yl)phenyl]-1H-1,2,4-triazol-1-yl]-8-[(1R)-1,2-dimethylpropyl]-1,6,6a,7,8,9,10,10a,10b,11,12,12a-dodecahydro-1,6a,8,10a-tetramethyl-4H-1,4a-propano-2H-phenanthro[1,2-c]pyran-7-carboxylic acid] | 0.376
7 | CC(C)[C@@H](C)[C@@]1(C)CC[C@]2(C)[C@H]3CC[C@@H]4[C@@]5(COC[C@@]4(C)[C@@H](OC[C@](C)(N)C(C)C)[C@H](n4ncnc4-c4ccnc(-c6cccnc6)c4)C5)C3=CC[C@@]2(C)[C@@H]1C(=O)O [Example 272, (1S,4aR,6aS,7R,8R,10aR,10bR,12aR,14R,15R)-15-[[(2R)-2-amino-2,3-dimethylbutyl]oxy]-14-(5-[2,3′-bipyridin]-4-yl-1H-1,2,4-triazol-1-yl)-8-[(1R)-1,2-dimethylpropyl]-1,6,6a,7,8,9,10,10a,10b,11,12,12a-dodecahydro-1,6a,8,10a-tetramethyl-4H-1,4a-propano-2H-phenanthro[1,2-c]pyran-7-carboxylic acid] | 10.1
8 | COC(=O)N1CCC(c2ncnn2[C@@H]2C[C@@]34COC[C@](C)([C@@H]3CC[C@H]3C4=CC[C@@]4(C)[C@H](C(=O)O)[C@@](C)([C@H](C)C(C)C)CC[C@]34C)[C@H]2OC[C@](C)(N)C(C)(C)C)CC1 [Example 276, (1S,4aR,6aS,7R,8R,10aR,10bR,12aR,14R,1SR)-15-[[(2R)-2-amino-2,3,3-trimethylbutyl]oxy]-8-[(1R)-1,2-dimethylpropyl]-14-[5-[1-(methoxycarbonyl)-4-piperidinyl]-1H-1,2,4-triazol-1-yl]-1,6,6a,7,8,9,10,10a,10b,11,12,12a-dodecahydro-1,6a,8,10a-tetramethyl-4H-1,4a-propano-2H-phenanthro[1,2-c]pyran-7-carboxylic acid] | 2.52
9 | CC(C)[C@@H](C)[C@@]1(C)CC[C@]2(C)[C@H]3CC[C@@H]4[C@@]5(COC[C@@]4(C)[C@@H](OC[C@](C)(N)C(C)(C)C)[C@H](n4ncnc4C4CCOCC4)C5)C3=CC[C@@]2(C)[C@@H]1C(=O)O [Example 285, (1S,4aR,6aS,7R,8R,10aR,10bR,12aR,14R,15R)-15-[[(2R)-2-amino-2,3,3-trimethylbutyl]oxy]-8-[(1R)-1,2-dimethylpropyl]-14-[5-(tetrahydro-2H-pyran-4-yl)-1H-1,2,4-triazol-1-yl]-1,6,6a,7,8,9,10,10a,10b,11,12,12a-dodecahydro-1,6a,8,10a-tetramethyl-4H-1,4a-propano-2H-phenanthro[1,2-c]pyran-7-carboxylic acid] | 4.07
10 | CC(C)[C@@H](C)[C@@]1(C)CC[C@]2(C)[C@H]3CC[C@@H]4[C@@]5(COC[C@@]4(C)[C@@H](OC[C@](C)(N)C(C)C)[C@H](n4cccn4)C5)C3=CC[C@@]2(C)[C@@H]1C(=O)O [Example 291, (1S,4aR,6aS,7R,8R,10aR,10bR,12aR,14R,15R)-15-[[(2R)-2-amino-2,3-dimethylbutyl]oxy]-8-[(1R)-1,2-dimethylpropyl]-14-(1H-pyrazol-1-yl)-1,6,6a,7,8,9,10,10a,10b,11,12,12a-dodecahydro-1,6a,8,10a-tetramethyl-4H-1,4a-propano-2H-phenanthro[1,2-c]pyran-7-carboxylic acid] | 54.9
